US20110306580A1 (DONG WHA PHARMACEUTICAL CO ., LTD., priority 2009, published 2011)

What was measured:
[1] = test system: ROS17/2.8 cells; experiment: Cell growth of ROS17/2.8 cells by BrdU uptake (Cell Proliferation Biotrak ELISA); type: cell-based, rat; conditions: for Relative index of BrdU uptake amount, Solution 3 (1α,25-dihydroxyvitamin D3 alone): 10^−4M 1α,25-dihydroxyvitamin D3 solution diluted 1000 fold; for Cell growth of ROS17/2.8 cells compared with Solution 1 (FIG. 1) / Cell growth of ROS17/2.8 cells compared with Solution 1 (FIG. 2): BrdU uptake, Dunnett multiple comparison test; for Product of relative indices of single agent addition group: Bürgi's method
Protocol: ROS17/2.8 cells were inoculated to a 96-well plate at a density of 2×10^4 cells/well. An αMEM medium to which 10% fetal calf serum had been added (referred to as the 10% FCS-αMEM, hereinafter) was used as a medium. After culture of the cells overnight, the medium was removed from each well, and an αMEM medium to which 0.5% fetal calf serum had been added (referred to as the 0.5% FCS-αMEM, hereinafter) was added. After culture of the cells for about six hours, the medium was removed from each well, and a 10% FCS-αMEM comprising DMSO and ethanol (referred to as Solution 1, hereinafter), a Compound 1 solution and ethanol (referred to as Solution 2, hereinafter), a 1α,25-dihydroxyvitamin D3 solution and DMSO (referred to as Solution 3, hereinafter) or the Compound 1 solution and the 1α,25-dihydroxyvitamin D3 solution (referred to as Solution 4, hereinafter) was added. The 10% FCS-αMEM comprising Solution 1 was prepared by diluting DMSO and ethanol by 1000 fold with the 10% FCS-αMEM. The 10% FCS-αMEM comprising Solution 2 was prepared by diluting a 10^−5M Compound 1 solution and ethanol by 1000 fold with the 10% FCS-αMEM. The 10% FCS-αMEM comprising Solution 3 was prepared by diluting a 10^−4M 1α,25-dihydroxyvitamin D3 solution and DMSO by 1000 fold with the 10% FCS-αMEM. The 10% FCS-αMEM comprising Solution 4 was prepared by diluting the 10^−5M Compound 1 solution and the 10^−4M 1α,25-dihydroxyvitamin D3 solution by 1000 fold with the 10% FCS-αMEM. After culture of the cells for about 24 hours, the effect of Compound 1 and 1α,25-dihydroxyvitamin D3 on the cell growth of the ROS17/2.8 cells was evaluated using Amersham Cell Proliferation Biotrak ELISA system, version 2 (manufactured by GE healthcare bioscience K.K., Code No. RPN250). Namely, growing cells were made take 5-bromo-2′-deoxyuridine (BrdU) into the cells, and the cells were detected by ELISA using peroxidase-labeled anti-BrdU antibodies. The amount of BrdU taken into the cells was determined by measuring absorbance (450 nm) of the solution by a microplate reader.
The BrdU uptake amount in each solution addition group was obtained in terms of a percentage to the average value of the BrdU uptake amount in four wells in a Solution 1 addition group. The graph was made using the average value±standard error of the four wells of each solution addition group.
In the Bürgi's method, the value of a standard group is […] the values of each treated group to obtain a relative index. […] If they are the same, it is determined that there is an added action. In contrast, if the value of the combination treatment group is poor, it is determined that there is an antagonistic action.
ROS17/2.8 cells were inoculated to a 96-well plate at a density of 5×10^3 cells/well. The 10% FCS-αMEM was used as a medium. After culture of the cells overnight, the medium was removed from each well, and the 0.5% FCS-αMEM was added. After culture of the cells for about six hours, the medium was removed from each well, and the 10% FCS-αMEM comprising DMSO and ethanol (referred to as Solution 1, hereinafter), a Compound 11 solution and ethanol (referred to as Solution 5, hereinafter), the 1α,25-dihydroxyvitamin D3 solution and DMSO (referred to as Solution 3, hereinafter) or the Compound 11 solution and the 1α,25-dihydroxyvitamin D3 solution (referred to as Solution 6, hereinafter) was added. The 10% FCS-αMEM comprising Solution 1 was prepared by diluting DMSO and ethanol by 1000 fold with the 10% FCS-αMEM. The 10% FCS-αMEM comprising Solution 5 was prepared by diluting a 10^−5M Compound 11 solution and ethanol by 1000 fold with the 10% FCS-αMEM. The 10% FCS-αMEM comprising Solution 3 was prepared by diluting a 10^−4M 1α,25-dihydroxyvitamin D3 solution and DMSO by 1000 fold with the 10% FCS-αMEM.

[2] = test system: ROS17/2.8 cells; experiment: Cell growth of ROS17/2.8 cells by the MTT method (formed formazan); type: cell-based, rat; conditions: for activity at 0.02 µM: Rattus norvegicus, 2×10^−5M Test Compound solution diluted 1000 fold, read-out: Amount of formed formazan, Solution 8 (Test Compound alone); for Relative index of Solution 10 (a group of a drug combination) / Amount of formed formazan, Solution 10 (a group of a drug combination): Test Compound in combination with 1α,25-dihydroxyvitamin D3
Protocol: 100 μL of a 10% FCS-αMEM comprising either DMSO and ethanol (referred to as Solution 7, hereinafter), a Test Compound solution and ethanol (referred to as Solution 8, hereinafter), a 1α,25-dihydroxyvitamin D3 solution and DMSO (referred to as Solution 9, hereinafter) or a Test Compound solution and the 1α,25-dihydroxyvitamin D3 solution (referred to as Solution 10, hereinafter) was dispensed. The ROS17/2.8 cells were inoculated to a medium at a density of 5×10^3 cells/100 μL/well. After culture of the cells for about 48 hours, the effect of Test Compound and 1α,25-dihydroxyvitamin D3 on the cell growth of the ROS17/2.8 cells was evaluated using the MTT method. Namely, after culture of the cells for about 44 hours, an MTT solution (3-[4,5-dimethylthiazol-2-yl]-2,5-diphenyltetrazolium bromide 2 mg/mL) was added in an amount of 25 μL/well, and the cells were further cultured for four hours. After the medium was removed, DMSO was added in an amount of 100 μL/well so as to dissolve the formed formazan. The amount of the formed formazan was determined by measuring the absorbance (at 560 nm) of the solution by a microplate reader.
The 10% FCS-αMEM comprising Solution 7 was prepared by diluting DMSO by 1000 fold with the 10% FCS-αMEM, and diluting ethanol by 10000 fold with the 10% FCS-αMEM. The 10% FCS-αMEM comprising Solution 8 was prepared by diluting a 2×10^−5M Test Compound solution by 1000 fold with the 10% FCS-αMEM, and diluting ethanol by 10000 fold with the 10% FCS-αMEM. The 10% FCS-αMEM comprising Solution 9 was prepared by diluting 2×10^−3M 1α,25-dihydroxyvitamin D3 solution by 10000 fold with the 10% FCS-αMEM, and diluting DMSO by 1000 fold with the 10% FCS-αMEM. The 10% FCS-αMEM comprising Solution 10 was prepared by diluting a 2×10^−5M Test Compound solution by 1000 fold with the 10% FCS-αMEM, and diluting 2×10^−3M 1α,25-dihydroxyvitamin D3 solution by 10000 fold with the 10% FCS-αMEM.
The amount of the formed formazan in each solution addition group was obtained in terms of a percentage to the average value of the amounts of formed formazan in four wells in a Solution 7 addition group. All the determined values were shown in terms of the average value±standard deviation of the four wells of each solution addition group.

[3] = amount of formed formazan, Solution 7 = 1.00
[4] = percentage to Solution 7 addition group, about 48 hours, average ± standard deviation of four wells

Row | SMILES | Relative index of BrdU uptake amount, Solution 3 (1α,25-dihydroxyvitamin D3 alone) ([1]; Example 1, 2×10^4 cells/well, about 24 hours, Solution 1 = 1.000) | Cell growth of ROS17/2.8 cells compared with Solution 1 (FIG. 1) ([1]; Example 1) | Relative index of BrdU uptake amount, Solution 3 (1α,25-dihydroxyvitamin D3 alone) ([1]; Example 2, 5×10^3 cells/well, about 24 hours, Solution 1 = 1.000) | Cell growth of ROS17/2.8 cells compared with Solution 1 (FIG. 2) ([1]; Example 2) | Relative index of Solution 9 (1α,25-dihydroxyvitamin D3 alone) [2, 3] | Amount of formed formazan, Solution 9 (1α,25-dihydroxyvitamin D3 alone) ([2]; percentage to Solution 7 addition group, 2×10^−3M 1α,25-dihydroxyvitamin D3 solution diluted 10000 fold, about 48 hours, average ± standard deviation of four wells) [%] | Relative index of BrdU uptake amount, Solution 2 (Compound 1 alone) ([1]; Example 1, 2×10^4 cells/well, 10^−5M Compound 1 solution diluted 1000 fold, about 24 hours, Solution 1 = 1.000) | Product of relative indices of single agent addition group ([1]; Example 1, Compound 1 alone × 1α,25-dihydroxyvitamin D3 alone) | Relative index of BrdU uptake amount, Solution 5 (Compound 11 alone) ([1]; Example 2, 5×10^3 cells/well, 10^−5M Compound 11 solution diluted 1000 fold, about 24 hours, Solution 1 = 1.000) | Product of relative indices of single agent addition group ([1]; Example 2, Compound 11 alone × 1α,25-dihydroxyvitamin D3 alone) | activity at 0.02 µM [2, 4] [%] | Relative index of Solution 10 (a group of a drug combination) [2, 3] | Amount of formed formazan, Solution 10 (a group of a drug combination) [2, 4] | Relative index of Solution 8 (Test Compound alone) [2, 3]
1 | C=C1/C(=C\C=C2/CCC[C@]3(C)[C@@H]([C@H](C)CCCC(C)(C)O)CC[C@@H]23)C[C@@H](O)C[C@@H]1O [1α,25-dihydroxyvitamin D3, reference compound] | 1.220 | not significantly different | 1.195 | not significantly different | 1.05 | 105 ± 3.1 |  |  |  |  |  |  |  | 
2 | Cc1nc(-c2ccc(OCCCCCOc3ccc(/C(N)=N/O)cc3)cc2)c(C(C)C)s1 [Compound 1, N-hydroxy-4-{5-[4-(5-isopropyl-2-methyl-1,3-thiazol-4-yl)phenoxy]pentoxy}benzamidine] |  | not significantly different |  |  |  |  | 1.011 | 1.233 |  |  |  |  |  | 
3 | CCCN(CCC)c1nc(-c2ccc(OCCCCCOc3ccc(/C(N)=N/O)cc3)cc2)c(CC)s1 [Compound 11, N-hydroxy-4-{5-[4-(2-dipropylamino-5-ethyl-1,3-thiazol-4-yl)phenoxy]pentoxy}benzamidine] |  |  |  | not significantly different |  |  |  |  | 1.023 | 1.223 | 103 ± 2.4 | 1.15 | 115 ± 4.4 # % | 1.03
4 | Cc1nc(-c2ccc(OCCCCCOc3ccc(/C(N)=N/O)cc3)cc2)c(N(C)C)s1 [Compound 35, N-hydroxy-4-{5-[4-(5-dimethylamino-2-methyl-1,3-thiazol-4-yl)phenoxy]pentoxy}benzamidine] |  |  |  |  |  |  |  |  |  |  | 101 ± 2.3 | 1.12 | 112 ± 3.0 ## % | 1.01
